Data reported in ChEMBL document CHEMBL4373699, “Structure-Guided Discovery of a Selective Mcl-1 Inhibitor with Cellular Activity” (J Med Chem, 2019).

Assays:
[1] = biological target: T1, Induced myeloid leukemia cell differentiation protein Mcl-1 (Homo sapiens, UniProt Q07820); assay: biochemical
Bcl-2-like protein 1 [2] = biological target: T2, Bcl-2-like protein 1 (Homo sapiens, UniProt Q07817); assay: Inhibition of Bcl-XL (unknown origin) by fluorescence polarization assay
[3] = biological target: T3, Apoptosis regulator Bcl-2 (Homo sapiens, UniProt P10415); assay: biochemical
T3 sequence (P10415 whole entry, the tested form may be a part): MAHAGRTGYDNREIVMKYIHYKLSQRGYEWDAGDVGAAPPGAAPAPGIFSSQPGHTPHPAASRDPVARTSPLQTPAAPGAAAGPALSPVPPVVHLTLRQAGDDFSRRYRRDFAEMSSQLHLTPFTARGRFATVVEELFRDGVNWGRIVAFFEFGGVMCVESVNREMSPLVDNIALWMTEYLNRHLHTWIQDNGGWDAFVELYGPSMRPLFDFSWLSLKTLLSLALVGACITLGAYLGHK

[4] = biological target: T3, Apoptosis regulator Bcl-2; assay: Displacement of N-terminal fluorescein labelled Puma-BH3 peptide from human N-terminal thrombin cleavage site-fused/His6-tagged Bcl-2 expressed in Escherichia coliBL21(DE3) pLysS cells at 10 uM by fluorescence polarization assay relative to control
[5] = biological target: T1, Induced myeloid leukemia cell differentiation protein Mcl-1; assay: biochemical; remark: listed apart in the source
Description: Binding affinity to TEV-fused His-tagged human Mcl-1 expressed in Escherichia coliBL21(DE3) pLysS cells by Isothermal Titration Calorimetry

Bcl-2-like protein 1 [6] = biological target: T2, Bcl-2-like protein 1; assay: Inhibition of Bcl-XL (unknown origin) at 10 uM by fluorescence polarization assay relative to control
in vivo [7] = conditions: mouse, po, 3 mg/kg
Description: Half-life in mouse at 3 mpk, po

[8] = mouse, plasma
Description: Fraction unbound in mouse plasma

Cytochrome P450 2C9 = Cytochrome P450 2C9 (Homo sapiens, UniProt P11712)
Cytochrome P450 2C9, sequence (P11712 whole entry): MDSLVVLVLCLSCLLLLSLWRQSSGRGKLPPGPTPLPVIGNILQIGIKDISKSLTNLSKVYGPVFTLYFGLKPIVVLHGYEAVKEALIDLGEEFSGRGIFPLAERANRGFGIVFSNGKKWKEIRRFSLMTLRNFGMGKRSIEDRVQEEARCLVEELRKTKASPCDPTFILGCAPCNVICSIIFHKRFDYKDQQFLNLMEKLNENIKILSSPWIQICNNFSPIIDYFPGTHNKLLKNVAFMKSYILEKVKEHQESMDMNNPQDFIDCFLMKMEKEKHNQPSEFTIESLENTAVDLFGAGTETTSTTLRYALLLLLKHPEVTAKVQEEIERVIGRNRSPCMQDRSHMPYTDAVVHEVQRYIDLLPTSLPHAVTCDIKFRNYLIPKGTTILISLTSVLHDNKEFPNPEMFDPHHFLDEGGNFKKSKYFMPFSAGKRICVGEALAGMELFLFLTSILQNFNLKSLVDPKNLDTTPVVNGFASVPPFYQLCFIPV
Description: Inhibition of human CYP2C9

in vivo [9] = conditions: mouse, iv, 1 mg/kg
Description: Half-life in mouse at 1 mpk, iv

Cytochrome P450 3A4 = Cytochrome P450 3A4 (Homo sapiens, UniProt P08684); assay: Inhibition of human CYP3A4; format: ADME
Cytochrome P450 3A4, sequence (P08684 whole entry): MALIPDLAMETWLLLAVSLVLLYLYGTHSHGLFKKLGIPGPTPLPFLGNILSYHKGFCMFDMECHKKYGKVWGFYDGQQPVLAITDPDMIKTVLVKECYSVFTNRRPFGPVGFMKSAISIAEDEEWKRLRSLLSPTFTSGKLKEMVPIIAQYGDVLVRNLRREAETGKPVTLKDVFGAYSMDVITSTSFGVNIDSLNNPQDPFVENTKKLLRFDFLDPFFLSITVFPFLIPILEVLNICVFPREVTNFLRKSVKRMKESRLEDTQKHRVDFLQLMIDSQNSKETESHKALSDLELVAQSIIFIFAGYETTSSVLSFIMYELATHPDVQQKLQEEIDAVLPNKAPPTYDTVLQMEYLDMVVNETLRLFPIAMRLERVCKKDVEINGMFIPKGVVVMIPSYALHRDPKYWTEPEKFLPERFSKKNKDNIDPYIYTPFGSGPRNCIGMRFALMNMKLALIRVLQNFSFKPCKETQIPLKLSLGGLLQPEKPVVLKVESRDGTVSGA

Cytochrome P450 1A2 = biological target: T4, Cytochrome P450 1A2 (Homo sapiens, UniProt P05177)
T4 sequence (P05177 whole entry): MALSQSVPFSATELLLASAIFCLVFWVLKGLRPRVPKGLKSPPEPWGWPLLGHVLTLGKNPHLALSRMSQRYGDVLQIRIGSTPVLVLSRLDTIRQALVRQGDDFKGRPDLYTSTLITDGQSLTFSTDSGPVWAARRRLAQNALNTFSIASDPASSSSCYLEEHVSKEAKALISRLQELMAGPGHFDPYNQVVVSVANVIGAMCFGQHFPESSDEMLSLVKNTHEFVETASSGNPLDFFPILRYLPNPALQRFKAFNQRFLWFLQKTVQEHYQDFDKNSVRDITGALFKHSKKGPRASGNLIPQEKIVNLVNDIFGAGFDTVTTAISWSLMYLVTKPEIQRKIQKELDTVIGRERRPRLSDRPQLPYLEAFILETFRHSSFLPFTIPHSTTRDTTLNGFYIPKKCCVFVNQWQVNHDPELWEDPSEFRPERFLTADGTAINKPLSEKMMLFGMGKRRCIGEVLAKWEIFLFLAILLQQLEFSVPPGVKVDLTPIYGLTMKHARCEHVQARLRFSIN
Description: Inhibition of human CYP1A2

in vivo [10] = conditions: mouse, plasma, iv, 1 mg/kg
Description: Plasma clearance in mouse at 1 mpk, iv

in vivo [11] = conditions: mouse, po, 3 mg/kg; remark: listed apart in the source
Description: Cmax in mouse at 3 mpk, po

[12] = human, plasma
Description: Fraction unbound in human plasma

in vivo [13] = conditions: mouse, po, 3 mg/kg; remark: listed apart in the source
Description: AUCt in mouse at 3 mpk, po

in vivo [14] = conditions: mouse, iv, 1 mg/kg; remark: listed apart in the source
Description: Volume of distribution in mouse at 1 mpk, iv

Cytochrome P450 2D6 = Cytochrome P450 2D6 (Homo sapiens, UniProt P10635)
Cytochrome P450 2D6, sequence (P10635 whole entry): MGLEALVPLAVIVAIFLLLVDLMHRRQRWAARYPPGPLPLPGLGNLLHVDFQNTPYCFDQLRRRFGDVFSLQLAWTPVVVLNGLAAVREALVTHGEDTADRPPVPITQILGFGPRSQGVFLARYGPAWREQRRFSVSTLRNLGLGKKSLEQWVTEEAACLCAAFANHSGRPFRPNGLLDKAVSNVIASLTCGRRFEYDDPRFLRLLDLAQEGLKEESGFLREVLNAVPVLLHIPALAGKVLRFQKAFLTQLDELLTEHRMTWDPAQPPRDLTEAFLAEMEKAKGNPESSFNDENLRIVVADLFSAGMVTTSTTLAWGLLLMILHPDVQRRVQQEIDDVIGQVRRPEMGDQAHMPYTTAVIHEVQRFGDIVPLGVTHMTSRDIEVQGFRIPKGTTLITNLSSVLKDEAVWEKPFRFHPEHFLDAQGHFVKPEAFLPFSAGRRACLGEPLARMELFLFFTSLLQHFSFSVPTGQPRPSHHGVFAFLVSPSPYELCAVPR
Description: Inhibition of human CYP2D6

in vivo [15] = conditions: mouse, po, 3 mg/kg; remark: listed apart in the source
Description: Oral bioavailability in mouse at 3 mpk

in vivo [16] = conditions: mouse, iv, 1 mg/kg; remark: listed apart in the source
Description: AUCt in mouse at 1 mpk, iv

Bcl-2-like protein 1 [17] = biological target: T2, Bcl-2-like protein 1; assay: Inhibition of Bcl-XL (unknown origin) at 0.5 mM by fluorescence polarization assay relative to control

T1 sequence (Q07820 whole entry): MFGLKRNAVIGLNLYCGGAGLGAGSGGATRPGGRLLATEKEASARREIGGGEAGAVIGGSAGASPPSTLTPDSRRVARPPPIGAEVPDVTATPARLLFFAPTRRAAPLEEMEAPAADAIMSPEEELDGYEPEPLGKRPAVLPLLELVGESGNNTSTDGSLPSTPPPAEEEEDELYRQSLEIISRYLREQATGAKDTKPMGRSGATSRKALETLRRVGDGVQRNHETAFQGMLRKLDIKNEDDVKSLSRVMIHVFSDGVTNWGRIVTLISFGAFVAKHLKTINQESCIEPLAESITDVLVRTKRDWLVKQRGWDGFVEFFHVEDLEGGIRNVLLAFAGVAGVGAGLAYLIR
T2 sequence (Q07817 whole entry): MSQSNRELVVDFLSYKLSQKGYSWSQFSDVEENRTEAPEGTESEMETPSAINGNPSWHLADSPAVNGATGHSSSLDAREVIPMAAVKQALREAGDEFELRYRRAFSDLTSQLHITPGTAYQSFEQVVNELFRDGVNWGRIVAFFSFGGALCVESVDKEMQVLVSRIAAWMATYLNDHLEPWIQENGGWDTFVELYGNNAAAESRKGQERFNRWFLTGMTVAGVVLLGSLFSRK

| SMILES | Ki [1] [µM] | Ki (Bcl-2-like protein 1 [2]) [µM] | Ki [3] [µM] | also measured |
| --- | --- | --- | --- | --- |
| CCc1sc2nc(S(C)(=O)=O)nc(N[C@H](C)C(=O)O)c2c1-c1cccc(Oc2ccc(F)cc2)c1 | 44 | 26 | 51 |  |
| CCNS(=O)(=O)c1cccc(-c2nc(N[C@H](C)C(=O)O)c3c(-c4cccc(Oc5ccc(F)cc5)c4)c(CC)sc3n2)c1 | 50 | 39 | 1.3 |  |
| CCc1sc2ncnc(O[C@H](C)C(=O)O)c2c1-c1ccc2ccccc2c1 | 6 |  |  |  |
| CCc1sc2ncnc(O[C@H](Cc3ccccc3)C(=O)O)c2c1-c1ccccc1C (stereo in doubt; 9d) [listing 1 of 2 here] | 0.89 |  |  |  |
| CCc1sc2ncnc(N[C@@H](Cc3ccccc3)C(=O)O)c2c1-c1cccc(O)c1 | 58 |  |  |  |
| CCc1sc2ncnc(O[C@H](Cc3ccccc3)C(=O)O)c2c1-c1cccc2[nH]ccc12 (stereo in doubt; 9b) [listing 1 of 2 here] | 0.64 |  |  |  |
| CCc1sc2ncnc(N[C@@H](Cc3ccccc3)C(=O)O)c2c1-c1cccc(Oc2ccc(F)cc2)c1 | 77 | 18 | 24 |  |
| CCc1sc2ncnc(N[C@H](Cc3ccccc3)C(=O)O)c2c1-c1cccc(Oc2ccc(F)cc2)c1 | 51 | 24 | 24 |  |
| CCc1sc2ncnc(N[C@@H](C)C(=O)O)c2c1-c1cccc(C(F)(F)F)c1 | 21 |  | 437 |  |
| CCc1sc2ncnc(O[C@H](Cc3ccccc3)C(=O)O)c2c1-c1cccc(Br)c1C (stereo in doubt; 10b) | 0.33 |  |  |  |
| CCc1sc2ncnc(O[C@H](Cc3ccccc3)C(=O)O)c2c1-c1cccc(Cl)c1C | 0.81 |  | 36 |  |
| CCc1sc2ncnc(O[C@H](Cc3ccccc3)C(=O)O)c2c1-c1cccc(Br)c1C (stereo in doubt; 10a) | 5.3 |  |  |  |
| CCc1sc2ncnc(O[C@H](Cc3ccccc3)C(=O)O)c2c1-c1cccc2[nH]ccc12 (stereo in doubt; 9b) [listing 2 of 2 here] |  |  |  | inhibition [4]: 11% |
| CCc1sc2ncnc(O[C@H](C)C(=O)O)c2c1-c1ccccc1C (stereo in doubt; 7e) | 15 |  |  |  |
| CCc1sc2ncnc(N[C@H](C)C(=O)O)c2c1-c1cccc(O)c1 | 45 |  | 5 |  |
| CCc1sc2ncnc(O[C@H](C)C(=O)O)c2c1-c1ccc(C(C)C)cc1 | 8.1 |  |  |  |
| CCc1sc2ncnc(N[C@H](Cc3ccccc3)C(=O)O)c2c1-c1cccc(O)c1 | 10 |  |  |  |
| CCc1sc2ncnc(N[C@H](C)C(=O)O)c2c1-c1ccccc1C | 100 |  |  |  |
| CCc1sc2ncnc(O[C@H](Cc3ccccc3)C(=O)O)c2c1-c1ccccc1C (stereo in doubt; 9c) | 3.4 |  |  |  |
| CCc1sc2ncnc(N[C@@H](C)C(=O)O)c2c1-c1cccc(Oc2ccc(F)cc2)c1 | 130 | 33 | 98 |  |
| CCc1sc2ncnc(N[C@H](C)C(=O)O)c2c1-c1ccccc1OCc1ccccc1 | 24 |  |  |  |
| CCc1sc2ncnc(N[C@@H](C)C(=O)O)c2c1-c1ccccc1 | 110 |  | 418 |  |
| CCc1sc2ncnc(N[C@@H](C)C(=O)O)c2c1-c1ccc(SC)cc1 | 44 | 216 | 359 |  |
| CCc1sc2ncnc(N[C@@H](C)C(=O)O)c2c1CC | 50 |  | 74 | IC50 [3]: 164 µM |

| SMILES | Ki [1] [µM] | Ki (Bcl-2-like protein 1 [2]) [µM] | Ki [3] [µM] | also measured |
| --- | --- | --- | --- | --- |
| CCc1sc2ncnc(N[C@H](Cc3ccccc3OC)C(=O)O)c2c1-c1cccc(Cl)c1C | 0.26 |  |  | Kd [5]: 0.024 µM |
| CCc1sc2ncnc(N[C@@H](C(=O)O)c3ccccc3)c2c1-c1cccc(O)c1 | 7.7 | 319 | 470 |  |
| O=C(O)[C@@H](Cc1ccccc1)Nc1ncnc2sc(-c3ccccc3)c(-c3cccc(O)c3)c12 | 24 |  | 21 |  |
| CCc1sc2ncnc(O[C@H](Cc3ccccc3)C(=O)O)c2c1-c1cccc2[nH]ccc12 (stereo in doubt; 9a) | 0.49 |  |  |  |
| CCc1sc2ncnc(N[C@H](C)C(=O)O)c2c1-c1cccc(Oc2ccc(F)cc2)c1 | 19 |  | 6.1 |  |
| CCc1sc2ncnc(O[C@H](C)C(=O)O)c2c1-c1ccccc1C (stereo in doubt; 7d) | 18 |  |  |  |
| CCc1sc2ncnc(N[C@H](Cc3ccccc3)C(=O)O)c2c1-c1ccc(OCCN2CCN(C)CC2)c(Cl)c1C (stereo in doubt; 17b) | 170 |  |  |  |
| CCc1sc2ncnc(N[C@H](Cc3ccccc3)C(=O)O)c2c1-c1cccc2[nH]ccc12 (stereo in doubt; 8b) | 5.7 |  |  |  |
| CCc1sc2ncnc(N[C@H](C(=O)O)c3ccccc3)c2c1-c1cccc(O)c1 | 27 | 107 | 269 |  |
| CCc1sc2ncnc(N[C@H](Cc3ccccc3OCCN3CCN(C)CC3)C(=O)O)c2c1-c1cccc(Cl)c1C | 2 |  |  | Kd [5]: 0.36 µM |
| CCc1sc2ncnc(N[C@H](CC3CCCCC3)C(=O)O)c2c1-c1cccc(Oc2ccc(F)cc2)c1 | 53 | 17 | 8.1 |  |
| CCc1sc2nc(-c3cccnc3)nc(N[C@H](C)C(=O)O)c2c1-c1cccc(Oc2ccc(F)cc2)c1 | 8.4 | 18 | 4.1 |  |
| CCc1sc2ncnc(NC(C(=O)O)c3ccccc3)c2c1-c1cccc(Oc2ccc(F)cc2)c1 (racemic) | 68 | 15 | 13 |  |
| CCc1sc2ncnc(O[C@H](Cc3ccccc3)C(=O)O)c2c1-c1ccccc1C (stereo in doubt; 9d) [listing 2 of 2 here] |  |  |  | inhibition (Bcl-2-like protein 1 [6]): 2%; inhibition [4]: 5% |
| C[C@@H](Nc1ncnc2sc(-c3ccccc3)c(-c3cccc(O)c3)c12)C(=O)O | 27 | 42 | 49 |  |
| CCc1sc2ncnc(O[C@H](Cc3ccccc3)C(=O)O)c2c1-c1cc2cc(CN(C)C)oc2c(Cl)c1C | 0.076 |  |  |  |
| CCc1sc2ncnc(O[C@H](Cc3ccccc3)C(=O)O)c2c1-c1ccc(OCC(=O)N2CCN(C)CC2)c(Cl)c1C | 0.021 |  |  |  |
| CCc1sc2ncnc(N[C@H](C)C(=O)O)c2c1-c1ccc2ccccc2c1 | 110 |  |  |  |
| CCc1sc2ncnc(N[C@H](Cc3ccccc3)C(=O)O)c2c1-c1cccc2[nH]ccc12 (stereo in doubt; 8a) | 1.6 | 135 |  |  |
| C[C@@H](Nc1ncnc2scc(-c3cccc(O)c3)c12)C(=O)O | 59 | 287 |  |  |
| CCc1sc2ncnc(NC(CO)C(=O)O)c2c1-c1cccc(Oc2ccc(F)cc2)c1 (racemic) | 61 | 87 |  |  |
| CCc1sc2ncnc(N[C@H](Cc3ccccc3)C(=O)O)c2c1-c1ccc(OCCN2CCN(C)CC2)c(Cl)c1C (stereo in doubt; 17a) | 0.22 |  |  | half-life (in vivo [7]): 3.8 h; Fu [8]: 0.2%; IC50 (Cytochrome P450 2C9): ≥ 20 µM; half-life (in vivo [9]): 0.65 h; IC50 (Cytochrome P450 3A4): 5.2 µM; IC50 (Cytochrome P450 1A2): ≥ 20 µM; clearance (in vivo [10]): 33 mL/min/kg; Cmax (in vivo [11]): 64 ng/mL; Fu [12]: 0.2%; AUC(0-t) (in vivo [13]): 168 ng·h/mL; Vd (in vivo [14]): 0.9 L/kg; IC50 (Cytochrome P450 2D6): ≥ 20 µM; bioavailability (in vivo [15]): 16%; AUC(0-t) (in vivo [16]): 509 ng·h/mL |
| CCc1sc2ncnc(O[C@H](Cc3ccccc3)C(=O)O)c2c1-c1cc(CN2CCN(C)CC2)c(O)c(Cl)c1C | 0.032 |  |  |  |
| C=C(C)c1sc2ncnc(N[C@H](Cc3ccccc3)C(=O)O)c2c1-c1cccc(Cl)c1C | 19 |  | 5.4 | inhibition (Bcl-2-like protein 1 [17]): 35% |
